Source: ChEMBL document CHEMBL1938341, “Alkylated flavanones from the bark of Cryptocarya chartacea as dengue virus NS5 polymerase inhibitors” (J Nat Prod, 2011)

What was measured:
[1] = Inhibition of Dengue virus 2 NS5 polymerase-mediated RNA synthesis expressed in Escherichia coli Rosetta pLac1 cells assessed as [3H]GTP incorporation after 5 mins by scintillation counting; design: species or system dengue virus type 2
[2] = Inhibition of Bovine diarrhea virus NS5 polymerase-mediated RNA synthesis expressed in Escherichia coli Rosetta pLac1 cells assessed as [3H]GTP incorporation after 5 mins by scintillation counting; design: species or system Bovine viral diarrhea virus 1
[3] = Growth inhibition of human KB cells at 10 ug/ml; type: cell-based; conditions: read-out: GI
KB = assay: Cytotoxicity against human KB cells; type: cell-based

| SMILES | IC50 ([1]; read-out: IC50) | IC50 [2] | inhibition at 10 ug/ml [3] | IC50 [1] | IC50 (KB) |
| --- | --- | --- | --- | --- | --- |
| O=C(O)CCCC(/C=C/c1ccccc1)c1c(O)cc2c(c1O)C(=O)CC(c1ccccc1)O2 (racemic) | 14.8 µM | > 50 µM | 3.2% | – | – |
| Nc1nc2c(ncn2[C@@H]2O[C@H](COP(=O)(O)OP(=O)(O)OP(=O)(O)O)C[C@H]2O)c(=O)[nH]1 | 0.02 µM | < 1 µM | – | – | – |
| O=C(O)CCC[C@@H](/C=C/c1ccccc1)c1c(O)cc2c(c1O)C(=O)C[C@@H](c1ccccc1)O2 [CHARTACEONE A4] | 7.4 µM | > 50 µM | 6% | – | – |
| O=C(O)CCC/C=C/C(c1ccccc1)c1c(O)c2c(c(C(/C=C/c3ccccc3)CCCC(=O)O)c1O)OC(c1ccccc1)CC2=O (racemic) | 1.8 µM | > 50 µM | 0% | – | – |
| O=C(O)CCC/C=C/C(c1ccccc1)c1c(O)c(C(/C=C/c2ccccc2)CCCC(=O)O)c(O)c2c1OC(c1ccccc1)CC2=O (racemic) | 2.9 µM | > 50 µM | 0% | – | – |
| O=C(O)CCC[C@H](/C=C/c1ccccc1)c1c(O)cc2c(c1O)C(=O)C[C@H](c1ccccc1)O2 | 15.3 µM | > 50 µM | 0% | – | – |
| O=C1C[C@@H](c2ccccc2)Oc2cc(O)cc(O)c21 [PINOCEMBRIN] | – | – | 0% | Not Active | – |
| O=C(O)CCC/C=C/C(c1ccccc1)c1c(O)c2c(c(C(/C=C/CCCC(=O)O)c3ccccc3)c1O)OC(c1ccccc1)CC2=O (racemic) | 4.2 µM | > 50 µM | 0% | – | – |
| CC(=O)O[C@@]12CO[C@@H]1C[C@H](O)[C@@]1(C)C(=O)[C@H](O)C3=C(C)[C@@H](OC(=O)[C@H](O)[C@@H](NC(=O)OC(C)(C)C)c4ccccc4)C[C@@](O)([C@@H](OC(=O)c4ccccc4)[C@H]21)C3(C)C [DOCETAXEL] | – | – | – | – | 0.015 µM |
| O=C(O)CCC[C@@H](/C=C/c1ccccc1)c1c(O)cc2c(c1O)C(=O)C[C@H](c1ccccc1)O2 | 9 µM | > 50 µM | 11% | – | – |
| O=C(O)CCC[C@H](/C=C/c1ccccc1)c1c(O)cc2c(c1O)C(=O)C[C@@H](c1ccccc1)O2 [CHARTACEONE A3] | 27 µM | > 50 µM | 0% | – | – |
| O=C(O)CCC/C=C/C(c1ccccc1)c1c(O)cc2c(c1O)C(=O)CC(c1ccccc1)O2 (racemic) | 72.5 µM | > 50 µM | 0% | – | – |
| O=C(O)CCCC(/C=C/c1ccccc1)c1c(O)c2c(c(C(/C=C/c3ccccc3)CCCC(=O)O)c1O)OC(c1ccccc1)CC2=O (racemic) | 2.4 µM | > 50 µM | 0% | – | – |
